Measurements: patent publication US4748154A, “Peptide derivatives, their production and use” (Takeda Chemical Industries, Ltd., priority 1985, dated 1988)
Square brackets hold non-standard residues; d marks the D form. Peptide text beside a SMILES is read from it. * marks the point of attachment. Cys(free,S-linked) = N[C@@H](CS*)C(=O)O; pGlu = O=C1CC[C@@H](C(=O)O)N1

System: C57BL/6 mice
Experiment: one-trial passive avoidance task, amnesia induced by cycloheximide
Type: in vivo
Settings: 24 h after footshock and cycloheximide 20 mg/kg sc
Method: The effect on memory process was tested in a one-trial passive avoidance task in C57BL/6 mice. The learning procedure was fundamentally the same as that used by Burbach et al (Science; 221, 1310-1312, 1983). The apparatus consisted of an illuminated compartment attached to a dark one with grid floor. Mice were placed in the light compartment and allowed to enter the dark one. When mice entered the dark compartment, an electric footshock (0.4 mA, 3 sec) was delivered. Immediately after receiving a footshock, mice were administered with cycloheximide (20 mg/kg, sc), a protein synthesis inhibitor, and a retention test trial was carried out 24 hours later. Retention of passive avoidance behavior was measured by the latency to reenter the dark compartment after placing mice in the light compartment. Five minutes before the testing, mice were treated with 5 μl of peptide in a dose of 10 pg and 10 ng by intracerebroventricular injection through a hypodermic needle attached to a 25 μl syringe. Compounds of the present invention were dissolved in saline. […] Median latencies in peptide-treated groups were expressed as a percentage of that in control, and either Mann-WhitneyU test for latencies or chi-square test for percent of mice showing latencies longer than 50 seconds was used in statistical analysis. Number of mice used in each group was 9-22.

[1] = intracerebroventricular injection (10 pg and 10 ng tested; dose not stated per value) 5 min before retention test

| SMILES | median latency to reenter the dark compartment, as a percentage of that in control [1] | median latency to reenter the dark compartment, as a percentage of that in control (dose of 10 pg, intracerebroventricular injection 5 min before retention test) |
| --- | --- | --- |
| NCCCC[C@@H](NC(=O)[C@H]1CCCN1C(=O)[C@H](CSSC[C@H](N)C(=O)O)NC(=O)[C@H](CC(N)=O)NC(=O)[C@@H]1CCC(=O)N1)C(=O)O [Example 6] ([pGlu]NC(Cys(free,S-linked))[dP][dK]-OH) | 238% |  |
| C[C@H](NC(=O)[C@H](CSSC[C@H](N)C(=O)O)NC(=O)[C@H](CC(N)=O)NC(=O)[C@@H]1CCC(=O)N1)C(=O)N[C@H](CCCCN)C(=O)O [Example 8] ([pGlu]NC(Cys(free,S-linked))A[dK]-OH) | 179% |  |
| N=C(N)NCCC[C@H](NC(=O)[C@@H]1CCCN1C(=O)[C@H](CSSC[C@H](N)C(=O)O)NC(=O)[C@H](CC(N)=O)NC(=O)[C@@H]1CCC(=O)N1)C(=O)NCC(N)=O [reference compound] ([pGlu]NC(Cys(free,S-linked))PRG-NH2) |  | 191 % of control |
| NCCCC[C@@H](NC(=O)[C@@H]1CCCN1C(=O)[C@H](CSSC[C@H](N)C(=O)O)NC(=O)[C@H](CC(N)=O)NC(=O)[C@@H]1CCC(=O)N1)C(=O)O [Example 1] ([pGlu]NC(Cys(free,S-linked))P[dK]-OH) | 238% |  |
